For one experiment, the system named is HEK293-vector. Description: NF-κB-luciferase reporter activation in HEK293-vector control cells, 10 μM IRM (Example 1). The format is cell-based, human. The following applies: 16 hours, luciferase signal, vector-transfected cells; for fold induction at 10 µM: Homo sapiens, read-out: Fold Increase Over DMSO Control, HEK293-vector. From the text:
(§1) HEK293 cells, derived from human embryonic kidney cells, may be co-transfected with (1) either a control vector (HEK293-vector) or a vector construct including human TLR8 (HEK293-TLR8), and (2) an NF-κB-luciferase reporter. The NF-κB-luciferase reporter provides a luciferase signal upon NF-κB activation in a transfected cell. Thus, TLR8-mediated NF-κB activity can be detected by exposing the cells transfected with vector and the cells transfected with the TLR8 construct to a test compound, then comparing the luciferase signal of the vector-transfected cells with the luciferase signal of the cells transfected with the TLR8 construct.
(§2) HEK293 cells were cultured in 90% Minimum Essential Medium (MEM) with 2 mM L-glutamine and Earle's Balanced Salt Solution (Invitrogen Corp., Rockville, Md.) adjusted to contain 1.5 g/L sodium bicarbonate, 0.1 mM non-essential amino acids, and 1.0 mM sodium pyruvate; 10% heat-inactivated fetal calf serum. The cells were incubated at 37° C., 8% CO2.
(§3) The cells were co-transfected with (1) pIRES (BD Biosciences Clontech, Palo Alto, Calif.) either (a) unmodified (HEK293-vector) or (b) containing human TLR8 (HEK293-TLR8), and (2) NFkB-luc reporter (Stratagene, La Jolla, Calif.) in a 10:1 ratio with Fugene 6 transfection reagent (Roche Diagnostics Corp., Indianapolis, Ind.) following the manufacturer's instructions.
(§4) The cells were stimulated with 1 μL of IRM compounds at 1 mM in DMSO (final IRM concentration of 10 μM) or 1 μL DMSO as a control. The plates were then incubated an additional 16 hours at 37° C., 5% CO2. Luminescence was measured on an LMAX luminometer (Molecular Devices Corp., Sunnyvale, Calif.).

In experiment [1] the target is T1, TLR8 (Homo sapiens, UniProt Q9NR97).
T1 sequence (Q9NR97 27-1041): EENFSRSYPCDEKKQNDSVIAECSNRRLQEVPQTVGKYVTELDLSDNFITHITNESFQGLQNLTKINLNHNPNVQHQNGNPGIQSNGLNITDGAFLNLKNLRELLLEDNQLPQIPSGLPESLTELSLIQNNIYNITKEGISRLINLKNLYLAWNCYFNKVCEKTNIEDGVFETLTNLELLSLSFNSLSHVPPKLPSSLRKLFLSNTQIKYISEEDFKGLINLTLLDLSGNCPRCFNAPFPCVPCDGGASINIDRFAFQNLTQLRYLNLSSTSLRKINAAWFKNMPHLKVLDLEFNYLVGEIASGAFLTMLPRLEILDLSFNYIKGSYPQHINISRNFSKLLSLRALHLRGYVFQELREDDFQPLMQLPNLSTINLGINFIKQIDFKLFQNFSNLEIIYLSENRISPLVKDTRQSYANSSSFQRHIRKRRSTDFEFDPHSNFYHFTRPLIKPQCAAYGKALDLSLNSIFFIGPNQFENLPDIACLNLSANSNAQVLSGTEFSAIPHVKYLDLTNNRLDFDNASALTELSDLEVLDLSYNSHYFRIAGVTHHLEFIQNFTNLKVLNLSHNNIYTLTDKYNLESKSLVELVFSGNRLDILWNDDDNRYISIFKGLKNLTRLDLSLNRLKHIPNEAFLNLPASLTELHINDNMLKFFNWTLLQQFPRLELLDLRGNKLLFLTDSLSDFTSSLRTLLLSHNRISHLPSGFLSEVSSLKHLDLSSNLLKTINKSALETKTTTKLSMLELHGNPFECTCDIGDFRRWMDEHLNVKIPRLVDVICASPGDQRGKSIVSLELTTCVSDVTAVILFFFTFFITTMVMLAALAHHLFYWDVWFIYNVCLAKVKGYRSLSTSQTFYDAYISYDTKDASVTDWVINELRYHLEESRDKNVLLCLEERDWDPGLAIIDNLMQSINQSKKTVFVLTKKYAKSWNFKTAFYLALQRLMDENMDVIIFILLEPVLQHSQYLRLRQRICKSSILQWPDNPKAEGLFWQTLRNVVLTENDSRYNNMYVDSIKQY
Description: NF-κB-luciferase reporter activation in HEK293-TLR8 cells, 10 μM IRM (Example 1). The arrangement: expressed in transfected cells; host or cells: HEK293 (ATCC CRL-1573), pIRES vector, G-418 selected, co-transfected with NFkB-luc reporter. The format is cell-based. The note with it: for Fold Increase Over DMSO Control, HEK293-TLR8: 16 hours, luciferase signal, TLR8-transfected cells; for Fold Increase Over DMSO Control, HEK293-TLR8 / HEK293-vector: ratio of TLR8-transfected to vector-transfected cells.
Source text: as §1, §2, §3, §4

Experiment [2] concerns the target T1, TLR8. The experiment can be described thus: Identification as TLR8 activator or non-activator (negative control compound). The format is cell-based. The following applies: used as negative control in monocyte, dendritic cell and macrophage tests.

For `CCOCc1nc2c(N)nc3c(c2n1CC(C)(C)O)CCCC3` [IRM 1, 4-amino-2-ethoxymethyl-α,α-dimethyl-6,7,8,9-tetrahydro-1H-imidazo[4,5-c]quinoline-1-ethanol], the fold induction at 10 µM with HEK293-vector came out at 0.85. Also, on TLR8 [1], the “Fold Increase Over DMSO Control, HEK293-TLR8” value is recorded as 8.64 fold and the “Fold Increase Over DMSO Control, HEK293-TLR8 / HEK293-vector” value was found to be 10.2.

On to `COCCc1nc2c(N)nc3ccccc3c2n1CC(C)(C)O` [IRM 2, 4-amino-α,α-dimethyl-2-methoxyethyl-1H-imidazo[4,5-c]quinoline-1-ethanol], for which the “Fold Increase Over DMSO Control, HEK293-vector” value with HEK293-vector was 1.16 fold. In addition, at TLR8 [1], the “Fold Increase Over DMSO Control, HEK293-TLR8” value stood at 10.18 fold and the “Fold Increase Over DMSO Control, HEK293-TLR8 / HEK293-vector” value is on record as 8.8.

Consider `CCOCc1nc2c(N)nc3ccccc3c2n1CCOCCCOCc1ccccc1` [IRM 4, 1-{2-[3-(benzyloxy)propoxy]ethyl}-2-(ethoxymethyl)-1H-imidazo[4,5-c]quinolin-4-amine], for which the fold induction at 10 µM with HEK293-vector turned out to be 0.41. Further, at TLR8 [1], the “Fold Increase Over DMSO Control, HEK293-TLR8” value stood at 2.64 fold and the “Fold Increase Over DMSO Control, HEK293-TLR8 / HEK293-vector” value was 6.4.

Take `CCCCNC(=O)NCCCCn1c(CCCC)nc2c(N)nc3cccnc3c21` [IRM 5, N-[4-(4-amino-2-butyl-1H-imidazo[4,5-c][1,5]naphthyridin-1-yl)butyl]-n′-butylurea]: the “Fold Increase Over DMSO Control, HEK293-vector” value with HEK293-vector came to 0.84 fold. On TLR8 [1], the “Fold Increase Over DMSO Control, HEK293-TLR8” value is 2.13 fold and the “Fold Increase Over DMSO Control, HEK293-TLR8 / HEK293-vector” value is reported as 2.5.

For the compound `CCCCc1nc2c(N)nc3cccnc3c2n1CCNC(=O)C(N)CC(C)C` (stereo not shown) [IRM 6, N^1-[2-(4-amino-2-butyl-1H-imidazo[4,5-c][1,5]naphthyridin-1-yl)ethyl]-2-amino-4-methylpentanamide], the fold induction at 10 µM in the experiment on HEK293-vector was 1.19. Besides, at TLR8 [1], the “Fold Increase Over DMSO Control, HEK293-TLR8” value is given as 9.24 fold and the “Fold Increase Over DMSO Control, HEK293-TLR8 / HEK293-vector” value is reported as 7.8.

For the compound `Nc1nc2ccccc2c2c1ncn2CCCCNC(=O)c1ccccc1Oc1ccccc1` [IRM 7, N^1-[4-(4-amino-1H-imidazo[4,5-c]quinolin-1-yl)butyl]-2-phenoxybenzamide], the fold induction at 10 µM in the experiment with HEK293-vector worked out at 1.02. On TLR8 [1], the “Fold Increase Over DMSO Control, HEK293-TLR8” value is 10.69 fold and the “Fold Increase Over DMSO Control, HEK293-TLR8 / HEK293-vector” value was 10.5.

`Nc1nc2ccccc2c2c1ncn2CCOCC#Cc1ccncc1.O=C(O)C(F)(F)F.O=C(O)C(F)(F)F` [IRM 8, 1-(2-{[3-(4-pyridyl)-2-propynyl]oxy}ethyl)-1H-imidazo[4,5-c]quinolin-4-amine bis(trifluoroacetate)]: in the experiment on HEK293-vector, the fold induction at 10 µM was 1.18. On TLR8 [1], the “Fold Increase Over DMSO Control, HEK293-TLR8” value amounted to 2.38 fold and the “Fold Increase Over DMSO Control, HEK293-TLR8 / HEK293-vector” value is given as 2.0.

Take `CCCCc1nc2c(N)nc3ccccc3c2n1CCNS(C)(=O)=O` [IRM 9, N-[2-(4-amino-2-butyl-1H-imidazo[4,5-c]quinolin-1-yl)ethyl]methanesulfonamide]: the fold induction at 10 µM in the experiment on HEK293-vector turned out to be 0.77. For the same compound, on TLR8 [1], the “Fold Increase Over DMSO Control, HEK293-TLR8” value stood at 8.64 fold and the “Fold Increase Over DMSO Control, HEK293-TLR8 / HEK293-vector” value came out at 11.2.

Turning to `COCCc1nc2c(N)nc3ccccc3c2n1CCOCCNC(=O)Nc1ccccc1` [IRM 10, N-(2-{2-[4-amino-2-(2-methoxyethyl)-1H-imidazo[4,5-c]quinolin-1-yl]ethoxy}ethyl)-n′-phenylurea], in the experiment with HEK293-vector, the “Fold Increase Over DMSO Control, HEK293-vector” value is listed as 1.08 fold. On TLR8 [1], the “Fold Increase Over DMSO Control, HEK293-TLR8” value was 7.25 fold and the “Fold Increase Over DMSO Control, HEK293-TLR8 / HEK293-vector” value came to 6.7.

On to `CCOCc1nc2c(N)nc3ccccc3c2n1CC(C)(C)N` [IRM 11, 1-(2-amino-2-methylpropyl)-2-(ethoxymethyl)-1H-imidazo[4,5-c]quinolin-4-amine], for which the fold induction at 10 µM in the experiment with HEK293-vector stood at 1.47. Further, on TLR8 [1], the “Fold Increase Over DMSO Control, HEK293-TLR8” value was 3.14 fold and the “Fold Increase Over DMSO Control, HEK293-TLR8 / HEK293-vector” value came to 2.1.

For the compound `CCc1nc2c(N)nc3ccccc3c2n1CCCCS(=O)(=O)c1cc(Cl)cc(Cl)c1` [IRM 12, 1-{4-[(3,5-dichlorophenyl)sulfonyl]butyl}-2-ethyl-1H-imidazo[4,5-c]quinolin-4-amine], the fold induction at 10 µM in the experiment on HEK293-vector amounted to 1.16. On TLR8 [1], the “Fold Increase Over DMSO Control, HEK293-TLR8” value is on record as 6.04 fold and the “Fold Increase Over DMSO Control, HEK293-TLR8 / HEK293-vector” value turned out to be 5.2.

`CCOCc1nc2c(N)nc3ccccc3c2n1CCOCCNC(=O)NC1CCCCC1` [IRM 13, N-(2-{2-[4-amino-2-(ethoxymethyl)-1H-imidazo[4,5-c]quinolin-1-yl]ethoxy}ethyl)-n′-cyclohexylurea]: the “Fold Increase Over DMSO Control, HEK293-vector” value in the experiment on HEK293-vector is on record as 0.99 fold. In addition, at TLR8 [1], the “Fold Increase Over DMSO Control, HEK293-TLR8” value stood at 2.33 fold and the “Fold Increase Over DMSO Control, HEK293-TLR8 / HEK293-vector” value stood at 2.3.

In the case of `CCOCc1nc2c(N)nc3ccccc3c2n1CCCNC(=S)Nc1cccc(C#N)c1` [IRM 14, N-{3-[4-amino-2-(ethoxymethyl)-1H-imidazo[4,5-c]quinolin-1-yl]propyl}-n′-(3-cyanophenyl)thiourea], the “Fold Increase Over DMSO Control, HEK293-vector” value in the experiment with HEK293-vector is listed as 1.26 fold. Besides, on TLR8 [1], the “Fold Increase Over DMSO Control, HEK293-TLR8” value is recorded as 10.00 fold and the “Fold Increase Over DMSO Control, HEK293-TLR8 / HEK293-vector” value was determined as 7.9.

On to `CCCCc1nc2c(N)nc3ccccc3c2n1CC(C)(C)CNC(=O)c1ccccc1` [IRM 15, N-[3-(4-amino-2-butyl-1H-imidazo[4,5-c]quinolin-1-yl)-2,2-dimethylpropyl]benzamide], for which the fold induction at 10 µM with HEK293-vector stood at 0.78. For the same compound, on TLR8 [1], the “Fold Increase Over DMSO Control, HEK293-TLR8” value was found to be 2.14 fold and the “Fold Increase Over DMSO Control, HEK293-TLR8 / HEK293-vector” value amounted to 2.7.

Regarding `CCc1nc2c(N)nc3ccccc3c2n1CCCCNS(C)(=O)=O` [IRM 16, N-[4-(4-amino-2-ethyl-1H-imidazo[4,5-c]quinolin-1-yl)butyl]methanesulfonamide], on TLR8 [2], the “TLR8 activation (in words)” value is given as “does not activate TLR8”.

These data come from patent US7375180B2, “Methods and compositions related to IRM compounds and Toll-like receptor 8” (3M Innovative Properties Company, priority 2003, dated 2008).
